# From a melting point compilation (Tetko et al.; mined from patent text by program, amines drawn as free bases though some values may be those of a salt)
row,melting point [°C],SMILES
1,258,CC1(C)CCCN(C(=O)[C@H]2C[C@@H](S(=O)(=O)c3ccccc3)[C@@H](c3ccccc3F)N2C(=O)CNC(=O)Nc2cccc(C(=O)O)c2)C1 (racemic)
2,65 to 72,Cn1cc(-c2ccccc2)c(=O)c(-c2cccc(S(=O)(=O)c3ccccc3)c2)c1
3,117 to 118,CC(=O)SC(CC(=O)c1ccc(Oc2ccc(Br)cc2)cc1)C(=O)O (stereo not drawn)
4,167 to 170,COc1cc2c(cc1O)CCC1C2CCC2(C)C(=O)CCC12 (stereo not drawn)
5,217 to 218,Cc1csc(Cc2ccc(NC(=O)/C=C/c3cnn(C)c3-c3ccc(F)cc3)cc2)n1
6,104 to 105,CC(C)(C)C(O)(COc1ccc(F)cc1)C(Cc1ccc(Cl)cc1)n1cncn1 (stereo not drawn)
7,135 to 137,COC(=O)C1(C)CCc2cc(C(=O)c3ccccc3)c(OC)cc21 (stereo not drawn)
8,133,COc1ccc2c(SC(C)(C)C)c(C(C)C(C)(C)C(=O)O)[nH]c2c1 (stereo not drawn)
9,238 to 239,CN(C(=O)c1ccc2nonc2c1)C1CCS(=O)(=O)CC1
10,217 to 219,COc1ccc(S(=O)(=O)Nc2cccnc2/C=C/c2ccc(O)cc2)cc1
11,97 to 100,O=C(O)c1cc(OCCCCCCc2cccc(OCc3ccccc3)c2OCc2ccccc2)ccc1O
12,186 to 187,O=c1[nH]c2ccc(O)cc2[nH]1
13,223 to 235,CC(C)(C)c1ccc(-n2c(CC(=O)O)c(C(=O)O)c3cc(Oc4ccc(C(=O)O)cn4)c(Cl)cc32)cc1
14,233,O=C(Nc1cccc(S(=O)(=O)N2CCOCC2)c1)c1cnn2c(C(F)(F)F)cc(-c3ccc(C(F)(F)F)cc3)nc12
15,167,Cc1cc(C#N)cc(C(=O)Nc2cccc(C(F)(F)F)c2)n1
16,148 to 150,COCOc1cc(C=O)c2nc3cccc(OCOC)c3nc2c1

row,melting point [°C],SMILES
1,139 to 140,COc1c(C)cc(-c2cc(-c3cccnc3)c(N3CCOCC3)s2)nc1C
2,69,C=C(C)C(=O)OCCCc1ccc(-c2ccc(OC(=O)C(=C)C)cc2)cc1
3,46 to 47,CCCCCCCCCCCCCCCCCCOc1cc(OCCCOc2ccccc2)cc(C(=O)OCc2ccccc2)c1
4,146 to 147,CCCC(=O)Nc1cc(Cl)c(O)c(Cl)c1
5,153 to 156,O=C(c1ccccc1Nc1ccncc1)N1CCCCC1
6,140 to 143,O=CNC1Cc2cccc3c2N(CCC3)C1=O (stereo not drawn)
7,172 to 173,FC1(F)CCC(n2ncc3c(Br)cncc32)CC1
8,177,O=C(c1ccc(O)cc1)c1cccc2[nH]ccc12
9,227 to 228,O=C1NC(C(=O)N2CCN3C(=O)OC(c4ccccc4)(c4ccccc4)C3C2)c2ccccc21 (stereo not drawn)
10,229 to 230,CC(C)(C)c1ccc(/C=C/C(=O)Nc2ccc3nccnc3c2)cc1
11,148,Cc1cc(Cc2cc(C(C)(C)CC(C)(C)C)cc(-n3nc4ccccc4n3)c2O)c(O)c(C(C)(C)C)c1
12,90 to 92,CN1CCC2(CC1)CN(c1ccccc1)c1ccccc12
13,154 to 156,CCC=C(NC(=O)C1CC1(C)C)C(=O)O (stereo not drawn)
14,134 to 137,Cc1nc(COc2ccc3c(c2)[C@H](O)[C@H](Cc2cccnc2)CO3)ccc1Br (relative stereo)
15,198 to 200,Cc1ccc(-c2ccc(C(=O)Nc3ccc4nc(CN5CCCCC5)ccc4c3)cc2)cc1

# More lines, now with the values behind:
row,SMILES,melting point [°C]
1,COC(=O)C1=C(C)NC(C)=C(c2nc(N(C)Cc3ccccc3)no2)C1c1cccc([N+](=O)[O-])c1 (stereo not drawn),182 to 184
2,CC(Oc1ccc(Cl)cc1Cl)c1nnc(N)s1 (stereo not drawn),119 to 123
3,CCC(C)(CC)NC(=O)C1(O)CC(C)(C)NC(C)(C)C1,127 to 129
4,CC(C)c1nc(CO)n(Cc2ccc(=O)[nH]c2)c1Sc1cc(Cl)cc(Cl)c1,220
5,CC1(C)CCC(C)(C)c2cc(C(O)C#Cc3ccc(C(=O)O)c(O)c3)ccc21 (stereo not drawn),203 to 204
6,N#Cc1ccccc1-c1ccc(CCl)cn1,97 to 98
7,CC(C)C1(C)C(=O)NC2(O)c3ncccc3C(=O)N21 (stereo not drawn),151 to 153
8,Cc1ccc2[nH]c(=O)c(-c3ccccc3)cc2c1,212 to 213
9,C[C@@H](n1cnc2c(Br)cc(Br)cc2c1=O)[C@](O)(Cn1cncn1)c1ccc(F)cc1F,134 to 135
10,CCOC(=O)C1Cc2c([nH]c3ccccc23)CN1 (stereo not drawn),126 to 128
11,CC(C)C(C)(C#N)NC(=O)c1ccccc1C(=O)O (stereo not drawn),154 to 155
12,Cn1c(=O)c2c(O)nccc2n(C)c1=O,> 300
13,CC(C)(C)[C@H]1CC[C@H](CC2=C(O)C(=O)c3ccccc3C2=O)CC1,180 to 182
14,O=C(CF)c1ccc(F)cc1F,57 to 58
15,Cn1ncc(C(=O)N2C[C@H]3C[C@@H]2CO3)c1C(=O)Nc1ccn2nc(-c3cccnc3)nc2c1,272 to 273
16,Cn1cc(-c2cc3cccnc3[nH]2)c2cc(C(=O)NCCC(N)=O)ccc21,286 to 288
17,O=c1[nH]c2ccc(Br)cc2n1Cc1ccccc1,245 to 246
18,CC(=O)NCCc1c(C(F)(F)F)nn2ccc3c(c12)CCO3,196 to 198
19,CCOC(=O)c1cccc2c1CCCC2C(N)=O (stereo not drawn),160 to 162
20,CC(=O)n1c(=O)oc2c(Cl)c(Cl)c(Cl)cc21,171 to 172
21,CCc1nc2c(C)c(Br)c(C)nc2n1Cc1ccc2oc(-c3cccc(F)c3C(=O)O)c(Br)c2c1,223 to 225
22,Cc1cnn(CN(C(=O)CCl)c2c(C)cccc2C)c1,100
23,N=C(N)Nc1nc(CSCCNC2=NS(=O)N=C2O)cs1 (stereo not drawn),148 to 151

row,SMILES,melting point [°C]
1,CCn1c(=O)c2[nH]c(/C=C/c3ccc(F)c(Br)c3)nc2n(CC)c1=O,> 300
2,COCCN(c1cccc2cc(C(=O)O)[nH]c12)S(=O)(=O)c1cccs1,216 to 217
3,CS(=O)(=O)NCCCC(c1cc(F)ccc1F)S(=O)(=O)c1ccc(Cl)cc1 (stereo not drawn),128
4,CC(=NNC(N)=O)c1ccc2nnn(Cc3ccc4ncccc4c3)c2n1,249 to 250
5,Cc1nn(CCCCO)c(-c2ccc(F)cc2)c1-c1ccc2c(c1)NC(=O)CO2,194 to 196
6,CC(C)C1(C(=O)O)CCCCC1,102
7,O=[N+]([O-])c1ccc(Oc2cccc3c(Oc4ccc([N+](=O)[O-])c([N+](=O)[O-])c4)cccc23)cc1[N+](=O)[O-],224 to 228
8,CCN(CC)CCCNc1ccc(-c2ccnc(Nc3cc(OC)c(OC)c(OC)c3)n2)cn1,67
9,O=C(CCl)Nc1ccccc1O,133 to 134
10,CCCCCCCCCC(=O)Nc1ccc(S(=O)(=O)Nc2nnc(CC(=O)OCC)s2)cc1,89 to 90
11,CC(C)SC1=C(C#N)C(c2ccccc2)(c2ccccc2)C(=O)N1,160
12,CC(C)c1cc(C(C)C)c(CC(=O)c2ccc(-c3ccccc3)c(OS(N)(=O)=O)c2-c2ccccc2)c(C(C)C)c1,129 to 132
13,Cc1ccc(C(=O)Nc2nc(C(Cl)(Cl)Cl)ns2)cc1,127
14,O=C(Nc1ccc(-n2nc(C(F)(F)F)cc2C(F)(F)F)cc1)c1cccc(C(F)(F)F)c1,143 to 145
15,CC(C)C(C)(C#N)N1C(=O)c2cc3ccccc3nc2C1=O (stereo not drawn),195 to 196
16,CCOc1ccc2c(c1)C(C)(c1cc(C(=O)N3CCN(C)CC3)ccc1Cl)C(=O)N2S(=O)(=O)c1ccc(C(=O)NC(C)(C)C)cc1OC (stereo not drawn),96
17,NCC1Cc2c(ccc3c2CCCC3)O1 (stereo not drawn),> 225
18,O=C(c1ccccc1OCCCCl)c1cccc2[nH]ccc12,94
19,Cc1cc(C)c2c(=O)[nH]c(-c3cc(C)c(OCCN4CCCC4)c(C)c3)nc2c1,181 to 182
20,NC(=O)C(CCN1CC[C@@H](OCc2cccc(Cl)c2)C1)(c1ccccc1)c1ccccc1,91 to 93
21,CC(C)(C)OC(=O)N1CCc2c(/C=C/[N+](=O)[O-])c3ccccc3n2CC1,227 to 230
22,O=c1c(Cl)c(Cl)cnn1-c1cc(C(F)(F)F)cc(C(F)(F)F)c1,255 to 262
23,CSCC[C@H](NC(=O)[C@@H]1CS[C@H](c2ccccc2O)N1C(=O)CCSC(C)=O)C(=O)O,59 to 64

row,SMILES,melting point [°C]
1,CCOC(=O)C(Cl)=Cc1ccc([N+](=O)[O-])cc1,108 to 110
2,Cc1cc(CCCCCOc2cc(Cl)c(-c3nnco3)c(Cl)c2)on1,73 to 74
3,CCC(C)c1c(Cl)nc(NC=O)nc1Cl (stereo not drawn),92 to 93
4,CCSc1cc(C)nc(SCC)c1NC(=O)CCCCCCCSc1nc2ccccc2[nH]1,166 to 168
5,COc1cc(Br)nc2[nH]cc(-c3ccnc(N)n3)c12,> 210
6,Cc1ccc(-c2[nH]c3c(Br)cc(Br)cc3c(=O)c2Cc2ccncc2)cc1,206 to 208
7,CSc1nnc2n1C=C(C)c1ccccc1C2,129 to 130
8,CC(C)(C)OC(=O)NC(Cc1ccccc1)C(=O)NC1N=C(c2ccccc2)c2ccccc2NC1=O (mixture of isomers),143 to 153
9,FC(F)(F)c1ccc2c(c1)C(c1ccccc1)=NCc1nncn1-2,258 to 260
10,CNc1n[nH]c(=O)n1N=C(C)CC(C)C,136
11,CSCC1(c2onc(-c3ccc(O)cc3)c2-c2ccccc2)CC1,176 to 177
12,Cc1nnc(-c2ccc3occ(-c4ccncc4Cl)c3c2)o1,147 to 148
13,CNc1ccc(F)cc1C(C)=O,43 to 45
14,O=C1O[C@@H](Cn2ccnn2)CN1c1ccc(-c2ccc(C3=NOC(C(O)c4ccccc4)C3)nc2)c(F)c1 (stereo partly drawn),182
15,CC(=O)NC1CC(C)(C)N(OC(C)=O)C(C)(C)C1,129 to 132
16,CCOC(=O)c1cc(C(=O)OCC)c(N)[nH]1,147 to 149
17,O=C(Nc1ccc2ccc(Oc3ccc(Cl)cc3)nc2n1)c1ccccc1,148
18,O=c1oc(CCc2ccccc2)cc(O)c1SCc1ccccc1,164 to 166
19,CN(C)CCCOc1ccc(N(C(=O)c2ccc(F)cc2)c2ccccc2)cc1,82.5 to 83.5
20,O=C(N[C@H](Cc1ccc(C(F)(F)F)cc1)[C@@H](O)c1ccc(F)cc1)c1cc(C(F)(F)F)cc(C(F)(F)F)c1 (racemic),150 to 151
21,c1ccc(C(C2=NCCN2)c2ccccn2)cc1 (stereo not drawn),134 to 136
